Reference: paper PMC11568214, “The impact of 9-azaglycophymine and phenylguanidine derivatives on the proliferation of various breast cancer cell lines in vitro and in vivo” (Scientific Reports, 2024)

Columns and labels:
4T1 = experiment: Apoptosis analysis, AnnV/PI staining, flow cytometry; type: cell-based, mouse; conditions: 4T1, IC50 for 72 h; control cells 31%
Protocol: Cells were seeded in 6-well plates and incubated for 24 h under standard culture conditions. […] For apoptosis analyses, the cell suspension was centrifuged for 3 min at 800 rpm, and the cell pellet was stained by using 100 µL of AnnV/PI working solution (5 µL of AnnV, 2 µL of PI in 100 µL of PBS) for 15 min at RT and protected from light. The staining was terminated by the addition of 900 µL of annexin binding buffer. Finally, all samples were analyzed by using flow cytometry (FACSAria III, BD Biosciences, New Jersey, USA).

MDA-MB-468 = experiment: Autophagy induction, acridine orange staining, flow cytometry; type: cell-based, human; parameters: key: ↑: induction; ↓: inhibition; ↔: no effect; conditions: MDA-MB-468, IC50 for 72 h
Protocol: (§1) Cells were seeded in 6-well plates and incubated for 24 h under standard culture conditions. […] For the analyses of autophagy induction, the cell suspension was centrifuged for 3 min at 800 rpm, and the cell pellet was stained with 1 mL of AO working solution (1 µg/mL of AO in growth medium). Cells were incubated for 15 min under standard culture conditions. The cell suspension was centrifuged for 3 min at 800 rpm, and the cell pellet was washed with 1 mL of fresh PBS. Finally, all samples were analyzed by using flow cytometry (FACSAria III, BD Biosciences, New Jersey, USA).

HCC1937 = experiment: as above; type: cell-based, human; parameters: key: ↑: induction; ↓: inhibition; ↔: no effect; conditions: HCC1937, IC50 for 72 h
Protocol: as §1

BT-474 = experiment: as above; type: cell-based, human; parameters: key: ↑: induction; ↓: inhibition; ↔: no effect; conditions: BT-474, IC50 for 72 h
Protocol: as §1

MCF-7 = experiment: as above; type: cell-based, human; parameters: key: ↑: induction; ↓: inhibition; ↔: no effect; conditions: MCF-7, IC50 for 72 h
Protocol: as §1

[1] = tested on: 4T1 mouse breast cancer cells (TNBC); experiment: Syngeneic orthotopic 4T1 breast cancer model in BALB/c mice, tumor volume; type: in vivo
Text: Compound 19 was selected to be tested against a syngeneic breast cancer model induced by orthotopic inoculation of 4T1 mouse breast cancer cells (TNBC) into BALB/c mice. In that exploratory study, we aimed to investigate for the first time a proposed anticancer efficacy of that compound. For that purpose, three groups were included in the study, each comprising eight animals. The resulting total number of 24 animals aimed to avoid under- or overpowering of the study. The animals were kept under standard laboratory conditions with an ad libitum regime for food and water intake. 5 × 10^4 of 4T1 cells in 50 µL PBS were inoculated in the fourth right mammary fat pad of female mice at day 0. Anesthesia was induced using a combination of ketamine and xylazine at doses of 60 mg/kg and 7.5 mg/kg, respectively.
On day 6, the mice were assigned to the study groups using a stratified randomization approach, ensuring that the mean tumor volumes were as similar as possible across all groups. The control group was treated with 400 µL of vehicle solution, the low dose compound 19 group with 5 mg/kg in 400 µL of vehicle, and the high dose group with […] in 400 µL of vehicle. The vehicle was 4% (v/v) DMSO in PBS, and the administration route was intraperitoneal (i.p.). The animals were treated daily on days 6–10 (starting from the day when tumors became palpable), 13–17 and day 20. Animals were visually examined daily, and urine samples were collected on the first and last day of treatment and analyzed by Multistix urine test stripes (Siemens Healthineers, Erlangen, Germany). On day 21 of the experiment, the mice were sacrificed using cervical dislocation. Following the sacrifice, the tumor diameters were measured using a caliper. The tumor volume (V) was then calculated using the formula V = L*W^2*0.52[36], where L represents the longest diameter and W the shortest diameter of the tumor.

MCF-10A = experiment: CV cell viability assay on healthy breast cell line; type: cell-based; conditions: Homo sapiens, 72 h
Protocol: (§2) The cell lines were cultured in standard growth medium consisting of RPMI1640 medium supplemented with 10% (v/v) FCS, 1% (v/v) penicillin/streptomycin and 1% (v/v) glutamine[25]–[29]. Two additional cell lines were included in the study representing non-tumorigenic (“healthy”) breast cells, namely 184B5 and MCF10A. These cell lines were cultured using an Endopan 3 medium kit in accordance with the manufacturer’s instruction. For passaging and seeding, cells were treated as previously described. In brief, seeding was done in low density with 6 × 10^3 cells/100 µL in 96-well plates, and with 1.5 × 10^5 cells/1 mL in 6-well plates. […]
(§3) For initial testing of the cytotoxic effect of the available glycophymine compounds (Table S2), cells were treated with compound in three concentrations: 1, 10 and 50 µM. […] Subsequently, the cell viability was determined by using the crystal violet (CV) assay. […]
(§4) For CV assays, after 72 h treatment, the treatment medium was discarded from the 96-well plates, and the cells were washed using 50 µL of PBS. […] Finally, the absorbance was measured at 570 nm by using a SpectraMax M5 plate reader (Molecular Devices, California, USA) and at 670 nm as background wavelength. […] Based on that, IC50 values and standard deviations were calculated for each replicate individually.

184B5 = experiment: as above; type: cell-based; conditions: Homo sapiens, 72 h
Protocol: as §2, §3, §4

For `O=c1[nH]c(Nc2ccc([N+](=O)[O-])cc2)nc2ccccc12` [Compound 19, 4′-nitro-9-aza-glycophymine], the “percentage of apoptotic cells” value (4T1) was 69%, the Autophagy (MDA-MB-468) was “↔” and the Autophagy (HCC1937) was “↔”. For the same molecule, the Autophagy (BT-474) was “↔”, the Autophagy (MCF-7) was “↔” and the “reduction of the tumor volume compared to the control group” value ([1]; 5 mg/kg i.p., day 21) was 30%. For the same molecule, the median tumor volume ([1]; 5 mg/kg i.p., days 6–10, 13–17 and 20, measured day 21, control group 205 mm^3) was 143 mm^3, the “tumor suppression at the higher dose” value ([1]; 20 mg/kg i.p., compared with 5 mg/kg) was “no further improvement of the tumor suppression was observed” and the IC50 (MCF-10A) was ~4 µM. For the same molecule, the IC50 (184B5) was ~4 µM.
